“Also recorded” adds a separate entry of the source.
What was measured:
[1] = tested on: C2C12 cells; assay: Mitochondrial membrane potential by TMRM fluorescence; format: cell-based, mouse; conditions: co-treatment with oligomycin 1 μM, 20 min; C18:1-Phe 50 μM, FCCP 0.4 μM
Method: Mitochondrial membrane potential was measured using tetramethylrhodamine methyl ester (TMRM, Life Technologies) fluorescence. C2C12 cells were plated in 6-well plates and grown to 80-90% confluence. Cells were then washed once with PBS and switched into Seahorse respiration buffer with the indicated compounds at the indicated concentrations: TMRM (100 nM), oligomycin (1 μM), FCCP (0.4 μM), and C18:1-Phe (10 or 50 μM). After 20 min. incubation at 37° C., the media was aspirated, cells were washed once with PBS, and trypsinized. Trypsinized cells were directly resuspended in PBS (total volume 300 μl), stored on ice, and analyzed on a FACSCanto™ II (BD Biosciences) with 20,000 events per sample.

[2] = target: T1, mouse PM20D1 (Mus musculus, UniProt Q8C165); assay: In vitro PM20D1-catalyzed N-acyl amino acid hydrolysis; format: biochemical; conditions: N-acyl amide substrate 100 μM
T1 construct: Full-length mouse Pm20d1 cDNA (GE Dharmacon) was subcloned with an in-frame C-terminal 6× His and FLAG® tag; made in house; host or cells: 293A (HEK293A) cells stably infected with retrovirus
T1 sequence (Q8C165 25-503): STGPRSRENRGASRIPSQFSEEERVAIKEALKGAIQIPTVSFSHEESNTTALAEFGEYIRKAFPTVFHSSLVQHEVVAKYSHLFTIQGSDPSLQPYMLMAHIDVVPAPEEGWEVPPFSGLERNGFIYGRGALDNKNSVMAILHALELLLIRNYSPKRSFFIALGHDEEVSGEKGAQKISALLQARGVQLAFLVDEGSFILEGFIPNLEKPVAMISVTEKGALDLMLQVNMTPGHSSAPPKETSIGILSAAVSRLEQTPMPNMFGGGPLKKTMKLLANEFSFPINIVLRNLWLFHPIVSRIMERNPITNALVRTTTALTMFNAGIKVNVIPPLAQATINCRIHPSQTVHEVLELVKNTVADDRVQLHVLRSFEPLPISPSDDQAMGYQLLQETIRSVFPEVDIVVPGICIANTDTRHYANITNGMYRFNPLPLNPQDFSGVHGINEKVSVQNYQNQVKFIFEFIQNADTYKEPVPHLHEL
Method: The concentrated media was centrifuged to remove debris (600×g, 10 min, 4° C.) and the supernatant containing PM20D1-flag was decanted into a new tube. PM20D1-Flag was immunoaffinity purified overnight at 4° C. from the concentrated media using magnetic Flag-M2 beads (Sigma Aldrich). The beads were collected, washed three times in PBS, eluted with 3× Flag peptide ([…] in PBS, Sigma Aldrich), aliquoted, and stored at −80° C. For the purification of human PM20D1-flag, hPM20D1-flag plasmid (Origene) was transiently transfected into 293A cells. After two days, the media was changed, harvested 24 h later, concentrated, and purified exactly as described above.
In vitro PM20D1-catalyzed synthesis of N-acyl amino acids was measured by incubating purified PM20D1 protein with oleate (1.5 mM) and phenylalanine (0.1 mM) in PBS (to 100 μl final volume) at 37° C. for 1.5 hrs. In vitro PM20D1-catalyzed N-acyl amino acid hydrolysis was measured by incubating purified PM20D1 protein with the indicated N-acyl amino acid (0.1 mM) in PBS (to 100 μl final volume) at 37° C. for 1.5 hrs. Reactions were terminated by placing the vials at −80° C. and the products generated in vitro were analyzed by mass spectroscopy (MS).
Briefly, frozen serum (30 μl) for polar metabolomic analyses were extracted in 160 μl of 1:1 acetonitrile/methanol with inclusion of internal standard D3, ^15N-serine (1 nmol). Activity assays (100 μl) were extracted in 400 μl 1:1 acetonitrile/methanol. Following 30 s of thorough vortexing and 1 min of bath sonication, the polar metabolite fraction (supernatant) was isolated by centrifugation at 13,000×g for 10 min. Ten μl of this supernatant was analyzed by SRM-based targeted LC-MS/MS, or untargeted LC-MS.
For separation of polar metabolites, normal-phase chromatography was performed with a […] column (50 mm×4.60 mm, Phenomenex). Mobile phases were as follows: Buffer A, acetonitrile; Buffer B, 95:5 water/acetonitrile with 0.1% formic acid or 0.2% ammonium hydroxide with 50 mM ammonium acetate for positive and negative ionization mode, respectively. The flow rate for each run started at 0.2 ml/min for 2 min, followed by a gradient starting at 0% B and increasing linearly to 100% B over the course of 15 min with a flow rate of 0.7 ml/min, followed by an isocratic gradient of 100% B for 10 min at 0.7 ml/min before equilibrating for 5 min at 0% B with a flow rate of 0.7 ml/min. MS analysis was performed with an electrospray ionization (ESI) source on an Agilent 6430 QQQ LC—MS/MS. The capillary voltage was set to 3.5 kV, and the fragmentor voltage was set to 100 V. The drying gas temperature was 325° C., the drying gas flow rate was 10 l/min, and the nebulizer pressure was 45 psi. For polar targeted and untargeted metabolomic analysis, representative metabolites were quantified by SRM of the transition from precursor to product ions (corresponding to amino acid fragment) at associated collision energies. Several representative fragmentation ions are as follows: C18:1-Ala, 352>88; C18:1-Gly, 338>74; C18:1-Phe, 428>164; C18:1-Leu/Ile, 394>130; C20:4-Phe, 450>164; C20:4-Leu/Ile, 416>130. Untargeted LC-MS was performed by scanning a mass range of m/z 50-1200, and data were exported as mzdata files and uploaded to XCMSOnline (xcmsserver.nutr.berkeley.edu) to identify metabolites that were differentially changed. For targeted metabolomics analysis, metabolites were quantified by integrating the area under the peak and were normalized to internal standard values corresponding to 1 nmol D3, ^15N-serine.

Structure (SMILES): CCCCCCCC/C=C\CCCCCCCC(=O)N[C@@H](Cc1ccccc1)C(=O)O [C18:1-Phe, Oleoyl-L-phenylalanine]
- decrease of TMRM fluorescence [1]: ~45%
- substrate of the PM20D1 hydrolysis reaction [2]: substrates; also recorded: liberated free oleate
